Laboratory results: ChEMBL document CHEMBL3232722, “Synthesis and kinase inhibitory activity of new sulfonamide derivatives of pyrazolo[4,3-e][1,2,4]triazines” (Eur J Med Chem, 2014)
The source made the active and inactive calls. The calls are words filed in the database; no cut-off is given here.

Assays:
[1] = test system: K562; experiment: In vitro antiproliferative activity against human K562 cells assessed as decrease in cell viability after 24 hrs by MTT assay; format: functional, cell-based; details: for IC50: K562, 24 h
[2] = biological target: Cyclin-dependent kinase 2/cyclin E1 (Homo sapiens, UniProt P24941); experiment: Inhibition of CDK2/cyclin E (unknown origin) expressed in Sf9 cells using histone H1 as substrate in presence of [gamma33P]ATP
[3] = test system: K562; experiment: Effect on cell cycle distribution in human K562 cells after 24 hrs by propidium iodide staining based flow cytometry; format: functional
[4] = biological target: T1, Bcr/Abl fusion protein (Homo sapiens) (UniProt P00519+P11274); experiment: Inhibition of Bcr/Abl kinase in human K562 cells assessed as decrease in CrkL phosphorylation at Tyr207 at 1 to 100 uM after 1 hr by immunoblot analysis; format: cell-based
T1 sequence (P00519 whole entry, looked up, the tested form may be a part): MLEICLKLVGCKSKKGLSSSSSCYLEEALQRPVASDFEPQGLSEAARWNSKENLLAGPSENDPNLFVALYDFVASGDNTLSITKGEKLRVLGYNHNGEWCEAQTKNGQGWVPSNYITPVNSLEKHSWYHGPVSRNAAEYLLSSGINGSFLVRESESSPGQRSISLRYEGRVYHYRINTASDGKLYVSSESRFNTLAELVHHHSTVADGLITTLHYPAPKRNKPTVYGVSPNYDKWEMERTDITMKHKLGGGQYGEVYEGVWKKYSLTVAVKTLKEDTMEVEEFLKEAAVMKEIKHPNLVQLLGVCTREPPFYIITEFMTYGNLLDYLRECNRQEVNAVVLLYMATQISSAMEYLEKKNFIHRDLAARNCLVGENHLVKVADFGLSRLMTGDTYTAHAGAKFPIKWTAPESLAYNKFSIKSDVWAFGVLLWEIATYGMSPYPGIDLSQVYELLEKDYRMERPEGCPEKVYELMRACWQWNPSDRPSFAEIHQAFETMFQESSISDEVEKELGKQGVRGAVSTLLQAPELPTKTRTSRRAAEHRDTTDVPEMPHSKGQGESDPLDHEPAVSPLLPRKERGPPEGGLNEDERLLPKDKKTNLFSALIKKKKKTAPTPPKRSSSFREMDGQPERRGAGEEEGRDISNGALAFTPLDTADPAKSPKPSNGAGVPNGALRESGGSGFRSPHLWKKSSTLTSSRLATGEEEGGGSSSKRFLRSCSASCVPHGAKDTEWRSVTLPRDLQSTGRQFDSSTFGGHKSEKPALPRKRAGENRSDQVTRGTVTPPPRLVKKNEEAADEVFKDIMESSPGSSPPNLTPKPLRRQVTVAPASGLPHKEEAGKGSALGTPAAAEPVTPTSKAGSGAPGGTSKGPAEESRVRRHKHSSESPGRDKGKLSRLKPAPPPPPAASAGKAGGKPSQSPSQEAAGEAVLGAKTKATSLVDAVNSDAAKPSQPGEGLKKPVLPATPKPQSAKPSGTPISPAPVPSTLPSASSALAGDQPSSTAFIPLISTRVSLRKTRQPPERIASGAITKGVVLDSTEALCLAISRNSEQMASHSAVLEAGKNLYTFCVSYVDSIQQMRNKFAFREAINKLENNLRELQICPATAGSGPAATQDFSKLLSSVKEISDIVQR
T1 sequence (P11274 whole entry, looked up, the tested form may be a part): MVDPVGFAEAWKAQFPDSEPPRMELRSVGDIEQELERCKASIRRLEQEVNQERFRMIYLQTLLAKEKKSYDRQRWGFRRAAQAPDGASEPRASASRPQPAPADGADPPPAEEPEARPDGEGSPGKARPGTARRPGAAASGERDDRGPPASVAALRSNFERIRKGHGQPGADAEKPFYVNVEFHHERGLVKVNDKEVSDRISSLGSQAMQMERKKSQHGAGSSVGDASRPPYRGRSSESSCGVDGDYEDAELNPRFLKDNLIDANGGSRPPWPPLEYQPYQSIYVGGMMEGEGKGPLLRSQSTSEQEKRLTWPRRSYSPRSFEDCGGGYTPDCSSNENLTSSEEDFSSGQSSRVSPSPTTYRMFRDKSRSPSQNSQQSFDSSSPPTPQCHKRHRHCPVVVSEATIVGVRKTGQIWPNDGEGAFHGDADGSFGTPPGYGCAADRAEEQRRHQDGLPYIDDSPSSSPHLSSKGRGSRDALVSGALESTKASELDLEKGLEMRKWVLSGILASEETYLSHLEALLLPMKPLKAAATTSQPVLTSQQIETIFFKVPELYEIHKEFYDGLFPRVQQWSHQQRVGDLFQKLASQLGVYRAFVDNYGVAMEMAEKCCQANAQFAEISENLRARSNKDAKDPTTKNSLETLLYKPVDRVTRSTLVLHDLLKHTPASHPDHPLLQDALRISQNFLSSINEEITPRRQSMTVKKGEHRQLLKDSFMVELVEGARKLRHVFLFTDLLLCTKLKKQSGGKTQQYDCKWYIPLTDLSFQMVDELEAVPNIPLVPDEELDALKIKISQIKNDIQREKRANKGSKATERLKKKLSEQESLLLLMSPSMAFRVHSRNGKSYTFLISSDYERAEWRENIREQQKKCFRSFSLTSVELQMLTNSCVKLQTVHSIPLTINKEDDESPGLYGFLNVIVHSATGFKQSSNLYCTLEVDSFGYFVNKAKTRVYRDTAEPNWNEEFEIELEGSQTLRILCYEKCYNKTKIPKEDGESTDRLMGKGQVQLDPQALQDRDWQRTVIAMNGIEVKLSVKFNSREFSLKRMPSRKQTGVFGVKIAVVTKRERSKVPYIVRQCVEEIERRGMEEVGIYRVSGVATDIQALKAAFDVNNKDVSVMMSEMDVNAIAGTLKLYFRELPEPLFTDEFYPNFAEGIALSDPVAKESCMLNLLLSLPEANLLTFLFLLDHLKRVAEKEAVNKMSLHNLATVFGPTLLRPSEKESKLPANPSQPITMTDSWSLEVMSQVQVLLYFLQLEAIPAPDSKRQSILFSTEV

[5] = biological target: T2, Tyrosine-protein kinase ABL1 (Homo sapiens, UniProt P00519); experiment: Inhibition of Abl kinase tyrosine phosphorylation in human K562 cells after 1 hr by immunoblot analysis; format: cell-based
T2 sequence (P00519 whole entry): as the sequence (P00519 whole entry, looked up, the tested form may be a part) above

[6] = test system: MDA-MB-231; experiment: Cytostatic activity against human MDA-MB-231 cells assessed as decrease in [3H]thymidine incorporation into DNA after 24 hrs by liquid scintillation counting analysis; format: functional, cell-based
[7] = biological target: T1, Bcr/Abl fusion protein (Homo sapiens); experiment: Inhibition of Bcr/Abl kinase tyrosine phosphorylation in human K562 cells after 1 hr by immunoblot analysis; format: cell-based
[8] = biological target: T2, Tyrosine-protein kinase ABL1; experiment: Inhibition of recombinant Abl kinase (unknown origin) expressed in Sf9 cells using GGEAIYAAPFKK as substrate in presence of [gamma33P]ATP
[9] = test system: K562; experiment: Induction of apoptosis in human K562 cells assessed as increase in sub-diploid cell population at 10 to 100 uM after 24 hrs by propidium iodide staining based flow cytometry; format: functional
[10] = test system: CCRF-CEM; experiment: In vitro antiproliferative activity against human CCRF-CEM cells assessed as decrease in cell viability after 24 hrs by MTT assay; format: functional, cell-based
[11] = test system: MCF7; experiment: Cytostatic activity against human MCF7 cells assessed as decrease in [3H]thymidine incorporation into DNA after 24 hrs by liquid scintillation counting analysis; format: functional, cell-based
[12] = test system: K562; experiment: Antiproliferative activity against human K562 cells assessed as increase in number of cells with compromised cell membranes at 10 to 100 uM after 24 hrs by propidium iodide exclusion assay based flow cytometry; format: functional
[13] = test system: MDA-MB-231; experiment: In vitro antiproliferative activity against human MDA-MB-231 cells assessed as decrease in cell vaibility after 24 hrs by MTT assay; format: functional, cell-based; details: for IC50: MDA-MB-231, 24 h
[14] = test system: HL-60; experiment: In vitro antiproliferative activity against human HL60 cells assessed as decrease in cell viability after 24 hrs by MTT assay; format: functional, cell-based; details: for IC50: HL-60, 24 h
[15] = test system: K562; experiment: Inhibition of tyrosine phosphorylation of protein with molecular weight between 40 and 60 kDa in human K562 cells after 1 hr by immunoblot analysis; format: functional, cell-based
[16] = test system: MCF7; experiment: In vitro antiproliferative activity against human MCF7 cells assessed as decrease cell viability after 24 hrs by MTT assay; format: functional, cell-based; details: for IC50: MCF7, 24 h
[17] = biological target: Casein kinase II subunit alpha (Homo sapiens, UniProt P68400); experiment: Inhibition of CK2alpha1 (unknown origin) using casein as substrate in presence of [gamma33P]ATP
Sequence of Casein kinase II subunit alpha (P68400 whole entry, the tested form may be a part): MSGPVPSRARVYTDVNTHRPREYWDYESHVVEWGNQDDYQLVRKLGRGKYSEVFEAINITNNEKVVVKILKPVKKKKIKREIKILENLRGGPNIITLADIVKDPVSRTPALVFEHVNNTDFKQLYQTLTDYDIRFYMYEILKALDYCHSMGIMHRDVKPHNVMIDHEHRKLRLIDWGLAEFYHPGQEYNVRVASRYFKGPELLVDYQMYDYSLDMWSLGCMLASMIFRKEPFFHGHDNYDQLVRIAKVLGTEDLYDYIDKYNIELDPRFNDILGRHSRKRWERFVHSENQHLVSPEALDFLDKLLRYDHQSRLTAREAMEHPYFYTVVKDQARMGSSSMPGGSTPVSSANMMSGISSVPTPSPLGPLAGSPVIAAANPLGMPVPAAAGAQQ

[18] = biological target: T1, Bcr/Abl fusion protein (Homo sapiens); experiment: Inhibition of Bcr/Abl kinase in human K562 cells assessed as decrease in STAT5 phosphorylation at Tyr694 after 1 hr by immunoblot analysis; format: cell-based
[19] = test system: MCF7; experiment: Ratio of IC50 for human MCF7 cells to IC50 for human K562 cells; format: functional
[20] = (§1) In vitro antiproliferative activity against human BV173 cells assessed as decrease in cell viability after 24 hrs by MTT assay; format: functional, cell-based; details: BV-173, 24 h
[21] = test system: BV-173; experiment: as §1; format: functional, cell-based
[22] = test system: MDA-MB-231; experiment: Ratio of IC50 for human MDA-MB-231 cells to IC50 for human K562 cells; format: functional
[23] = test system: K562; details: Homo sapiens, 10 uM
Description: Inhibition of tyrosine phosphorylation of protein with molecular weight between 40 and 60 kDa in human K562 cells at 10 uM after 1 hr by immunoblot analysis

IC50 [1] [µM] | IC50 [2] [µM] | inhibition [5] | IC50 [6] [µM] | inhibition [7] | IC50 [8] [µM] | IC50 [10] [µM] | IC50 [11] [µM] | IC50 [13] [µM] | IC50 ([14]; read-out: IC50) [µM] | Compound | inhibition [1] | Activity [3] | inhibition [6] | Activity [9] | inhibition [10] | inhibition [11] | Activity [12] | inhibition [13] | inhibition [14] | IC50 [20] [µM] | also measured
27 | > 25 | Dose-dependent effect | 103 | Dose-dependent effect | 5.8 | 20 | 170 | 130 | 55 | Cc1nn(C)c2nnc(Nc3ccc(S(=O)(=O)N4CCNCC4)cc3)nc12 | Dose-dependent effect | inactive | Dose-dependent effect | Active | Dose-dependent effect | Dose-dependent effect | Active | Dose-dependent effect | Dose-dependent effect | 22 | inhibition [4]: Active; inhibition [15]: Dose-dependent effect; inhibition [16]: Dose-dependent effect; IC50 [16]: 150 µM; IC50 [17]: > 25 µM; inhibition [18]: Dose-dependent effect; Ratio IC50 [19]: 5; inhibition [21]: Dose-dependent effect
21 | > 50 | Dose-dependent effect | 150 | Dose-dependent effect | 5.9 | 36 | 123 | 155 | 38 | Cc1nn(C)c2nnc(Nc3ccc(S(=O)(=O)N4CCCNCC4)cc3)nc12 | Dose-dependent effect | inactive | Dose-dependent effect | Active | Dose-dependent effect | Dose-dependent effect | Active | Dose-dependent effect | Dose-dependent effect | 22 | Ratio IC50 [22]: 7; inhibition [15]: Dose-dependent effect; inhibition [16]: Dose-dependent effect; IC50 [16]: 140 µM; IC50 [17]: > 50 µM; inhibition [18]: Dose-dependent effect; inhibition [21]: Dose-dependent effect
13 | – | – | – | – | – | 45 | – | – | – | Cc1ccc(NC(=O)c2ccc(CN3CCN(C)CC3)cc2)cc1Nc1nccc(-c2cccnc2)n1 [IMATINIB] | – | – | – | – | – | – | – | – | – | 20 | IC50 [14]: 55 µM; inhibition [23]: Active
